Laboratory results: PMC9611734, “Alkaloid Derivative (Z)-3β-Ethylamino-Pregn-17(20)-en Inhibits Triple-Negative Breast Cancer Metastasis and Angiogenesis by Targeting HSP90α” (Molecules, 2022)

Target: T1, HSP90α (Homo sapiens, UniProt P07900)
T1 construct: gene HSP90AA1; Recombinant human HSP90 alpha protein (ab80369)
Assay: SPR (Biacore T200, […] binding model); supported by CETSA for HSP90 in MDA-MB-231 cells

## C/C=C1/CC[C@H]2[C@@H]3CCC4C[C@@H](NCC)CC[C@]4(C)[C@H]3CC[C@]12C (stereo partly drawn) [compound 1, (Z)-3β-ethylamino-pregn-17(20)-en]
  Kd: 21 µM
